In patent US9309225B2, “N-((1-benzyl-1H-1,2,3-triazol-4-yl)methyl)arylamide compounds as potential anticancer agents and a process for the preparation thereof” (COUNCIL OF SCIENTIFIC & INDUSTRIAL RESEARCH, priority 2013, dated 2016):

Assays:
Format in all cases: cell-based
NCI-H23 = assay: NCI sixty human tumor cell line screen, Non-small-cell-lung panel; settings: NCI protocol
Procedure: (§1) The in vitro anticancer activity studies for these N-((1-benzyl-1H-1,2,3-triazol-4-yl)methyl) arylamide analogues were carried out at the National Cancer Institute, USA.
(§2) The N-((1-benzyl-1H-1,2,3-triazol-4-yl)methyl)arylamide analogues have been tested at NCI, USA, against sixty human tumor cell lines derived from nine cancer types (leukemia, non-small cell lung cancer, colon cancer, CNS cancer, melanoma cancer, ovarian cancer, renal cancer, prostate cancer and breast cancer). For these compounds results are expressed as growth inhibition (GI50) values as per NCI protocol.

786-0 = assay: NCI sixty human tumor cell line screen, Renal panel; settings: 786-0, Renal, NCI protocol
Procedure: as §1, §2

IGROV1 = assay: NCI sixty human tumor cell line screen, Ovarian panel; settings: IGROV-1, NCI protocol
Procedure: as §1, §2

UACC-257 = assay: NCI sixty human tumor cell line screen, Melanoma panel; settings: UACC-257, Melanoma, NCI protocol
Procedure: as §1, §2

HCT-15 = assay: NCI sixty human tumor cell line screen, Colon panel; settings: HCT-15, Colon, NCI protocol
Procedure: as §1, §2

HCC-2998 = assay: as above; settings: HCC-2998, Colon, NCI protocol
Procedure: as §1, §2

HL-60(TB) = assay: NCI sixty human tumor cell line screen, Leukemia panel; settings: NCI protocol
Procedure: as §1, §2

CCRF-CEM = assay: as above; settings: NCI protocol
Procedure: as §1, §2

SR = assay: as above; settings: NCI protocol
Procedure: as §1, §2

RPMI-8226 = assay: as above; settings: RPMI-8226, Leukemia, NCI protocol
Procedure: as §1, §2

MOLT-4 = assay: as above; settings: MOLT-4, Leukemia, NCI protocol
Procedure: as §1, §2

K-562 = assay: as above; settings: K562, K-562, Leukemia, NCI protocol
Procedure: as §1, §2

A549 = assay: IC50 of compounds and E7010 against A549 cell line
Excerpt: (§3) In the present investigation, an attempt has been made, in view of the biological importance of both 2-anilino nicotinyl structure and 1,2,3-triazoles group. […] Introduction of triazole group on 2-anilino nicotinyl moiety resulted that there is enhancement of biological activity of representative compounds (1a, 1b, 1c, 1d, 1f, 1g, 1i, 1k, 6b and 6g) compare with E7010. Biological data of representative compounds has been provided in Table 1. • (Novel sulfonamides as potential, systemically active antitumor agents. Yoshino, H.; Ueda, N.; Niijima, J.; Sugumi, H.; Kotake, Y.; Koyanagi, N.; Yoshimatsu, K.; Asada, M.; Watanabe, T.; Nagasu, T. J. Med. Chem. 1992, 35, 2496-2497)

NCI-H322M = assay: NCI sixty human tumor cell line screen, Non-small-cell-lung panel; settings: NCI protocol
Procedure: as §1, §2

HOP-92 = assay: as above; settings: HOP-92, Non-small-cell-lung, NCI protocol
Procedure: as §1, §2

OVCAR-5 = assay: NCI sixty human tumor cell line screen, Ovarian panel; settings: OVCAR-5, Ovarian, NCI protocol
Procedure: as §1, §2

MALME-3M = assay: NCI sixty human tumor cell line screen, Melanoma panel; settings: NCI protocol
Procedure: as §1, §2

MCF-7 = assay: IC50 of compounds and E7010 against MCF-7 cell line
Excerpt: as §3

MCF7 = assay: NCI sixty human tumor cell line screen, Breast panel; settings: NCI protocol
Procedure: as §1, §2

[1] = Homo sapiens, A549, A549 cell line
[2] = Homo sapiens, MCF7, MCF-7 cell line

SMILES | GI50 (NCI-H23) [µM] | GI50 (786-0) [µM] | GI50 (IGROV1) [µM] | GI50 (UACC-257) [µM] | GI50 (HCT-15) [µM] | GI50 (HCC-2998) [µM] | GI50 (HL-60(TB)) [µM] | GI50 (CCRF-CEM) [µM] | GI50 (SR) [µM] | GI50 (RPMI-8226) [µM] | GI50 (MOLT-4) [µM] | GI50 (K-562) [µM] | IC50 (A549; A549 cell line) [µM] | IC50 (A549; [1]) [µM] | GI50 (NCI-H322M) [µM] | GI50 (HOP-92) [µM] | GI50 (OVCAR-5) [µM] | GI50 (MALME-3M) [µM] | IC50 (MCF-7; [2]) [µM] | IC50 (MCF-7; MCF-7 cell line) [µM] | further results
O=C(NCc1cn(Cc2cccc(Oc3ccccc3)c2)nn1)c1cccnc1Nc1ccccc1 [Compound 1a, N-((1-(3-Phenoxybenzyl)-1H-1,2,3-triazol-4-yl)methyl)-2-(phenylamino)nicotinamide] | 3.73 | 23.2 | 30.7 | 1.42 | 3.81 | 3.7 | 3.74 | 3.34 | 2.56 | 3.61 | 3.74 | 3.69 | 1.54 | 1.25 to 3.98 | – | – | – | – | – | – | –
O=C(NCc1cn(Cc2cccc(Oc3ccccc3)c2)nn1)c1cccnc1Nc1ccc(F)cc1 [Compound 1b, 2-(4-Fluorophenylamino)-N-((1-(3-phenoxybenzyl)-1H-1,2,3-triazol4-yl)methyl)nicotinamide] | 29.9 | 5.59 | 5.89 | 6.87 | – | – | – | – | – | – | – | – | 1.69 | 1.25 to 3.98 | 5.29 | 10.7 | 4.23 | 15.1 | – | – | –
COc1ccc(Nc2ncccc2C(=O)NCc2cn(Cc3cccc(Oc4ccccc4)c3)nn2)cc1 [Compound 1e, 2-(4-Methoxyphenylamino)-N-((1-(3-phenoxybenzyl)-1H-1,2,3-triazol-4-yl)methyl) nicotinamide] | 3.45 | 6.73 | – | 4.82 | 3.93 | 2.53 | 2.66 | 3.8 | – | 4.84 | 2.91 | 3.48 | – | – | 5.24 | 5.67 | ≥ 100 | 3.8 | – | – | –
COc1ccc(Nc2ncccc2C(=O)NCc2cn(Cc3cccc(Oc4ccccc4)c3)nn2)c(OC)c1 [Compound 1g, 2-(2,4-Dimethoxyphenylamino)-N-((1-(3-phenoxybenzyl)-1H-1,2,3-triazol-4-yl)methyl) nicotinamide] | 2.24 | 4.06 | 5.96 | – | 2.89 | 3.33 | 2.21 | 1.2 | – | 3.03 | 3.65 | 0.75 | 1.57 | 1.25 to 3.98 | – | – | 8.34 | 4.07 | 0.74 to 2.51 | 0.74 | GI50 (MCF7): 0.65 µM
COc1cc(Nc2ncccc2C(=O)NCc2cn(Cc3cccc(Oc4ccccc4)c3)nn2)cc(OC)c1 [Compound 1i, 2-(3,5-Dimethoxyphenylamino)-N-((1-(3-phenoxybenzyl)-1H-1,2,3-triazol-4-yl)methyl) nicotinamide] | 6.22 | 6.73 | – | 4.86 | 3.89 | 9.6 | 3.97 | 4.19 | – | 5.25 | 4.85 | 5.05 | 1.93 | 1.25 to 3.98 | 6.15 | 4.67 | ≥ 100 | 5.81 | 0.74 to 2.51 | 0.93 | –
O=C(NCc1cn(Cc2cccc(Oc3ccccc3)c2)nn1)c1cccnc1NCc1ccc(Cl)cc1 [Compound 1k, 2-(4-Chlorobenzylamino)-N-((1-(3-phenoxybenzyl)-1H-1,2,3-triazol-4-yl)methyl) nicotinamide] | – | – | 9.03 | 3.83 | 3.39 | 4.17 | 3.39 | 3.05 | 3.31 | 3.12 | 3.28 | 3.24 | 1.79 | 1.25 to 3.98 | – | 4.23 | 5.62 | 5.69 | – | – | GI50 (MCF7): 2.99 µM
